According to article PMC5651048, “Differential Resistance Mechanisms to Glyphosate Result in Fitness Cost for Lolium perenne and L. multiflorum” (Frontiers in Plant Science, 2017):

Test system: T1, EPSPS (5-enolpyruvlshikimate-3-phosphate synthase), Golf biotypes
T1 construct: native enzyme in leaf extract, not purified to homogeneity
Assay: EPSPS activity in leaf extract, phosphate release (EnzChek Phosphate Assay)
Assay type: biochemical, Lolium perenne
Details: S-Golf biotype; 0-1000 μM glyphosate; log-logistic fit; unit from Methods (table footnote with unit not in the material); read-out: EPSPS activity^c / I50
From the text: EPSPS activity in leaf extract, phosphate release (EnzChek Phosphate Assay) on EPSPS (5-enolpyruvlshikimate-3-phosphate synthase), Golf biotypes

Molecule `O=C(O)CNCP(=O)(O)O` [glyphosate, N-phosphonomethyl glycine] has an IC50 of 3.2 ± 0.3 µM.
